Measured values as given in US20240058464A1 (Fortis Therapeutics, Inc., priority 2021, published 2024).

Columns and labels:
CD46 expression [1] = assay: CD46 expression by RNA-sequencing in paired tumor biopsies before and after therapy; details: paired biopsies; for CD46 expression, Post-Treatment Biopsy: RNA-seq log2-transformed counts;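 for all read-outs here: FFPE human tumor biopsies, exome-capture RNA-seq, reads aligned to GRCh37, counts normalized for GC content, length and depth, summed per gene, log2-transformed, samples paired before versus after therapy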
Procedure: Gene expression was determined by RNA-sequencing from formalin-fixed, paraffin-embedded (FFPE) tumor samples using an exome capture-based protocol. Briefly, total nucleic acid was extracted from FFPE solid tumor samples. The RNA sample was treated with DNAse and reverse transcribed. cDNA was captured with a custom probe set targeting the human exome. A library was prepared from the captured cDNA and sequenced on the Illumina platform. Sequence read were aligned to GRCh37 using Kallisto and normalized to quantify gene expression. Specifically, transcript counts were corrected for GC content and length using quantile normalization and adjusted for sequencing depth via a size factor method. Normalized counts in protein coding transcripts covered by the exome panel were then summed to obtain gene-level counts. Subsequent expression analyses were performed on log2-transformed counts.

CD46 expression [2] = assay: CD46 expression by RNA-sequencing in unpaired pre-treatment and post-treatment tumor biopsies; assay type: in vivo, human; details: for CD46 expression Post: post-treatment biopsies
[3] = Breast Cancer, Post minus Pre, unpaired biopsies, log2-transformed counts
[4] = Breast Cancer, post- vs pre-treatment unpaired biopsies
[5] = Breast Cancer, unpaired, RNA-seq log2-transformed normalized counts
[6] = Sarcoma, Post minus Pre, unpaired biopsies, log2-transformed counts
[7] = Sarcoma, post- vs pre-treatment unpaired biopsies
[8] = Sarcoma, unpaired, RNA-seq log2-transformed normalized counts

## Nc1ccn([C@@H]2O[C@H](CO)[C@@H](O)C2(F)F)c(=O)n1 [gemcitabine]
CD46 expression [1]; Biliary Cancer
  CD46 expression diff (post minus pre): 0.05
  Percent Change in CD46 expression: 0.9%
  CD46 expression, Post-Treatment Biopsy: 5.86
CD46 expression [1]; Bladder Cancer
  CD46 expression diff (post minus pre): −0.05
  Percent Change in CD46 expression: −0.8%
  CD46 expression, Post-Treatment Biopsy: 6.24
CD46 expression [1]; Breast Cancer
  CD46 expression diff (post minus pre): 0.09
  Percent Change in CD46 expression: 1.4%
  CD46 expression, Post-Treatment Biopsy: 6.22
CD46 expression [1]; Ovarian Cancer
  CD46 expression diff (post minus pre): 0.30
  Percent Change in CD46 expression: 5.3%
  CD46 expression, Post-Treatment Biopsy: 5.95
CD46 expression [1]; Pancreatic Cancer
  CD46 expression diff (post minus pre): 0.09
  Percent Change in CD46 expression: 1.5%
  CD46 expression, Post-Treatment Biopsy: 5.93
CD46 expression [1]; Sarcoma
  CD46 expression diff (post minus pre): 0.02
  Percent Change in CD46 expression: 0.4%
  CD46 expression, Post-Treatment Biopsy: 5.13
CD46 expression [2]; Biliary Cancer, Post minus Pre, unpaired biopsies, log2-transformed counts
  CD46 expression diff: −0.03
CD46 expression [2]; Biliary Cancer, post- vs pre-treatment unpaired biopsies
  CD46 expression Percentage change: −0.5%
CD46 expression [2]; Biliary Cancer, unpaired, RNA-seq log2-transformed normalized counts
  CD46 expression Post: 5.80
CD46 expression [2]; Bladder Cancer, Post minus Pre, unpaired biopsies, log2-transformed counts
  CD46 expression diff: −0.03
CD46 expression [2]; Bladder Cancer, post- vs pre-treatment unpaired biopsies
  CD46 expression Percentage change: −0.5%
CD46 expression [2]; Bladder Cancer, unpaired, RNA-seq log2-transformed normalized counts
  CD46 expression Post: 6.12
CD46 expression [2]; [3]
  CD46 expression diff: 0.02
CD46 expression [2]; [4]
  CD46 expression Percentage change: 0.3%
CD46 expression [2]; [5]
  CD46 expression Post: 6.09
CD46 expression [2]; Non-Small Cell Lung Cancer, Post minus Pre, unpaired biopsies, log2-transformed counts
  CD46 expression diff: 0.10
CD46 expression [2]; Non-Small Cell Lung Cancer, post- vs pre-treatment unpaired biopsies
  CD46 expression Percentage change: 1.7%
CD46 expression [2]; Non-Small Cell Lung Cancer, unpaired, RNA-seq log2-transformed normalized counts
  CD46 expression Post: 5.98
CD46 expression [2]; Ovarian Cancer, Post minus Pre, unpaired biopsies, log2-transformed counts
  CD46 expression diff: −0.05
CD46 expression [2]; Ovarian Cancer, post- vs pre-treatment unpaired biopsies
  CD46 expression Percentage change: −0.9%
CD46 expression [2]; Ovarian Cancer, unpaired, RNA-seq log2-transformed normalized counts
  CD46 expression Post: 5.72
CD46 expression [2]; Pancreatic Cancer, Post minus Pre, unpaired biopsies, log2-transformed counts
  CD46 expression diff: 0.00
CD46 expression [2]; Pancreatic Cancer, post- vs pre-treatment unpaired biopsies
  CD46 expression Percentage change: 0.1%
CD46 expression [2]; Pancreatic Cancer, unpaired, RNA-seq log2-transformed normalized counts
  CD46 expression Post: 5.87
CD46 expression [2]; [6]
  CD46 expression diff: −0.10
CD46 expression [2]; [7]
  CD46 expression Percentage change: −2.0%
CD46 expression [2]; [8]
  CD46 expression Post: 5.02

## O=P1(NCCCl)OCCCN1CCCl (stereo not shown) [ifosfamide]
CD46 expression [1]; Sarcoma
  CD46 expression diff (post minus pre): 0.32
  Percent Change in CD46 expression: 6.7%
  CD46 expression, Post-Treatment Biopsy: 5.08
CD46 expression [2]; [6]
  CD46 expression diff: 0.17
CD46 expression [2]; [7]
  CD46 expression Percentage change: 3.4%
CD46 expression [2]; [8]
  CD46 expression Post: 5.07

## CCc1c2c(nc3ccc(OC(=O)N4CCC(N5CCCCC5)CC4)cc13)-c1cc3c(c(=O)n1C2)COC(=O)[C@]3(O)CC [irinotecan]
CD46 expression [1]; Colorectal Cancer
  CD46 expression diff (post minus pre): 0.16
  Percent Change in CD46 expression: 2.5%
  CD46 expression, Post-Treatment Biopsy: 6.48
CD46 expression [1]; Pancreatic Cancer
  CD46 expression diff (post minus pre): −0.01
  Percent Change in CD46 expression: −0.1%
  CD46 expression, Post-Treatment Biopsy: 5.93
CD46 expression [2]; Biliary Cancer, post minus pre, unpaired biopsies
  CD46 expression diff: −0.14
CD46 expression [2]; Biliary Cancer, post vs pre, unpaired biopsies
  CD46 expression Percentage change: −2.3%
CD46 expression [2]; Biliary Cancer, log2-transformed RNA-seq counts
  CD46 expression Post: 5.88
CD46 expression [2]; Colorectal Cancer, Post minus Pre, unpaired biopsies, log2-transformed counts
  CD46 expression diff: 0.16
CD46 expression [2]; Colorectal Cancer, post- vs pre-treatment unpaired biopsies
  CD46 expression Percentage change: 2.5%
CD46 expression [2]; Colorectal Cancer, unpaired, RNA-seq log2-transformed normalized counts
  CD46 expression Post: 6.54
CD46 expression [2]; Pancreatic Cancer, post minus pre, unpaired biopsies
  CD46 expression diff: −0.14
CD46 expression [2]; Pancreatic Cancer, post vs pre, unpaired biopsies
  CD46 expression Percentage change: −2.5%
CD46 expression [2]; Pancreatic Cancer, log2-transformed RNA-seq counts
  CD46 expression Post: 5.76
CD46 expression [2]; colorectal cancer, unpaired biopsies, FIG. 5
  CD46 expression after treatment vs pre-treatment: significantly higher

## N#Cc1ccc(C(c2ccc(C#N)cc2)n2cncn2)cc1 [letrozole]
CD46 expression [1]; Breast Cancer
  CD46 expression diff (post minus pre): −0.04
  Percent Change in CD46 expression: −0.6%
  CD46 expression, Post-Treatment Biopsy: 6.41
CD46 expression [2]; [3]
  CD46 expression diff: −0.04
CD46 expression [2]; [4]
  CD46 expression Percentage change: −0.6%
CD46 expression [2]; [5]
  CD46 expression Post: 6.39
CD46 expression [2]; Ovarian Cancer, post minus pre, unpaired biopsies
  CD46 expression diff: −0.17
CD46 expression [2]; Ovarian Cancer, post vs pre, unpaired biopsies
  CD46 expression Percentage change: −2.8%
CD46 expression [2]; Ovarian Cancer, log2-transformed RNA-seq counts
  CD46 expression Post: 5.74
